Source: patent US9738595B2, “Carboxamide compounds” (SYNGENTA PARTICIPATIONS AG, priority 2013, dated 2017)

Row | melting point [°C] | SMILES
1 | 65 to 82 | CC(C)(NC(=O)c1c(F)cccc1F)C(=O)c1ccc([C@H]2C[C@@H]2C(F)(F)F)cc1 (racemic) [Compound 19.003, N-[1,1-dimethyl-2-oxo-2-[4-[trans-2-(trifluoromethyl)-1-cyclopropyl]phenyl]ethyl]-2,6-difluoro-benzamide]
2 | 115 to 116 | CC(C)(NC(=O)c1c(F)cccc1F)C(=O)c1ccc([C@H]2C[C@@H]2C(=O)O)cc1 (racemic) [Compound 19.061, trans-2-[4-[2-[(2,6-Difluorobenzoyl)amino]-2-methyl-propanoyl]phenyl]cyclopropane carboxylic acid]
3 | 197 to 198 | CC(C)(C)OC(=O)N[C@H]1C[C@@H]1c1ccc(C(=O)C(C)(C)NC(=O)c2c(F)cccc2F)cc1 (racemic) [Compound 19.062, trans-tert-Butyl N-[2-[4-[2-[(2,6-difluorobenzoyl)amino]-2-methyl-propanoyl]phenyl]cyclopropyl]carbamate]
4 | 121 to 123 | CC(C)(NC(=O)c1c(F)cccc1F)C(=O)c1ccc(C2CC2)cc1 [Compound 19.001, N-[2-(4-cyclopropylphenyl)-1,1-dimethyl-2-oxo-ethyl]-2,6-difluoro-benzamide]
